Among the data in patent US12319655B2, “RAF kinase inhibitors and methods of use thereof” (Deciphera Pharmaceuticals, LLC, priority 2021, dated 2025) are IC50 values, retold here.

Structures are written as SMILES.

Test [1] deals with A-Raf kinase (SEQ. ID No: 1) (Homo sapiens (Human), UniProt P10398, Y301D/Y302D). The test can be described thus: Biochemical Assay for A-Raf (1). The following applies: Table J, assay version (1); read-out: ARAF (1) IC50. An outline of the steps: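 A-Raf Y301D/Y302D at 5.55 nM phosphorylates 30.1 nM MEK with 1 mM ATP in pH 7.5 Tris buffer, 1% DMSO. Activity was read continuously as NADH oxidation at 340 nm in a pyruvate kinase/lactate dehydrogenase coupled system for 6 h at 30 °C. Rates from 4–5 h were converted to percent inhibition, and IC50 came from a four-parameter fit.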

The target of test [2] is C-Raf kinase (SEQ. ID NO: 3) (Homo sapiens (Human), UniProt P04049, Y340D/Y341D). The experiment in a line: Biochemical Assay for C-Raf (1). Conditions: Table J, assay version (1); read-out: CRAF (1) IC50. The procedure, abridged:
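Coupled pyruvate kinase/LDH assay tracking NADH oxidation at 340 nm, with 0.43 nM C-Raf, 30.1 nM MEK and 1 mM ATP in pH 7.5 Tris buffer (15 mM MgCl2, 1% DMSO final). Read continuously for 6 h at 30 °C, rate taken from the 4–5 h window. IC50 from four-parameter fit of percent inhibition.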

Test [3] deals with B-Raf (V600E) (SEQ. ID NO: 4) kinase (Homo sapiens (Human), UniProt P15056, V600E). The test can be described thus: Biochemical Assay for B-Raf (V600E) (1). Conditions: Table J, BRAF V600E, assay version (1); read-out: BRAF VE (1) IC50. An outline of the steps: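 Coupled pyruvate kinase/lactate dehydrogenase assay: 0.03 nM B-Raf V600E, 30.1 nM MEK, 1 mM ATP, pH 7.5 Tris/MgCl2 buffer, 1% DMSO. NADH oxidation followed at 340 nm for 6 h at 30 °C; rate from 3–4 h converted to percent inhibition, IC50 by four-parameter fit.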
B-Raf (V600E) (SEQ. ID NO: 4) kinase, sequence (P15056 416-766 V600E): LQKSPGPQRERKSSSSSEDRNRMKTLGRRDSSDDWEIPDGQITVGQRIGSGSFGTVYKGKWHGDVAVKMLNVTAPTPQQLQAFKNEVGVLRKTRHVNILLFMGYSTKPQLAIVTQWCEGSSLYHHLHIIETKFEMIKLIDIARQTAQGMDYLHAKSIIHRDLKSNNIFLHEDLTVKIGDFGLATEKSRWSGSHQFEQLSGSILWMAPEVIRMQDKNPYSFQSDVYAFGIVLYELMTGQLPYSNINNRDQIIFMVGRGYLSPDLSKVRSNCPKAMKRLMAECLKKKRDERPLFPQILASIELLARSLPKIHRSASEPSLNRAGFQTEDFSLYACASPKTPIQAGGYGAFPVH

C-Raf kinase (SEQ. ID NO: 3), sequence (P04049 307-648 Y340D/Y341D): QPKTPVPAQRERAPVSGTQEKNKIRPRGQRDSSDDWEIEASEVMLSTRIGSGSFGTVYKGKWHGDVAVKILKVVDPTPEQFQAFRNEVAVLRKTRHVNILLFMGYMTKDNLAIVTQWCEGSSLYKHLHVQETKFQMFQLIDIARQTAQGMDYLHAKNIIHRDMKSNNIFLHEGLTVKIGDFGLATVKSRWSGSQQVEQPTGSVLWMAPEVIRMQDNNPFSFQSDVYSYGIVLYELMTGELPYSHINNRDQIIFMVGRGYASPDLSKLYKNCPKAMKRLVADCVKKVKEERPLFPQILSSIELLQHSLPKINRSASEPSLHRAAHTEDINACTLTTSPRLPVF
A-Raf kinase (SEQ. ID No: 1), sequence (P10398 other isoform, or with tags, fused parts or gaps Y301D (already in the parent)/Y302D (already in the parent)): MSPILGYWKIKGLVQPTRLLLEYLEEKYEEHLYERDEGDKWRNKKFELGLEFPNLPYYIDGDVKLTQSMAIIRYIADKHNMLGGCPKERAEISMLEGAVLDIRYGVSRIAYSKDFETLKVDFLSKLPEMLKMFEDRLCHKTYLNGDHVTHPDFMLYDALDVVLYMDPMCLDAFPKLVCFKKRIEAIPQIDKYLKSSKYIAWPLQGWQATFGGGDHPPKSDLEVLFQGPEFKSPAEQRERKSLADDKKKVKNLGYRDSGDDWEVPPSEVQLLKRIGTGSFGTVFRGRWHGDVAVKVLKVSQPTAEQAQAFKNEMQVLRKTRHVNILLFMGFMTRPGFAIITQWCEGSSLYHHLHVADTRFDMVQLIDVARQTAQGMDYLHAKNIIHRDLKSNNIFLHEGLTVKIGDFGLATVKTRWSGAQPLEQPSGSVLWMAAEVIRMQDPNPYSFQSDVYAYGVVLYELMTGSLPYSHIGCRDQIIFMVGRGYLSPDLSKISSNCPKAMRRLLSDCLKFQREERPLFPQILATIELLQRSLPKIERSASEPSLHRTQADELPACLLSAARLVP

On to `CC(=O)Nc1cc(-c2cc(-c3cc(NC(=O)c4ccnc(C(F)(F)F)c4)ccc3C)cc(OCCO)n2)ccn1` [Example 1, N-(3-(2′-acetamido-6-(2-hydroxyethoxy)-[2,4′-bipyridin]-4-yl)-4-methylphenyl)-2-(trifluoromethyl)isonicotinamide], for which the IC50 – broadly, the midpoint of a concentration-inhibition curve – is 1000 to 10000 nM in test [1], at most 100 nM in test [2] and at most 100 nM in test [3].

For the compound `CC(=O)Nc1cc(-c2cc(-c3cc(NC(=O)c4ccnc(C(F)(F)F)c4)c(F)cc3C)ccn2)ccn1` [Example 2], the IC50 in test [1] was 500 to 1000 nM; in test [2], at most 100 nM; in test [3], at most 100 nM.

Turning to `CC(=O)Nc1cc(-c2cc(-c3cc(NC(=O)c4cccc(C)c4)ccc3C)ccn2)ccn1` [Example 32], the half-maximal inhibitory concentration (IC50) was 500 to 1000 nM in test [1], at most 100 nM in test [2] and at most 100 nM in test [3].

Turning to `Cc1cc(F)c(NC(=O)c2ccnc(C(F)(F)F)c2)cc1-c1ccnc(-c2ccnc(NC=O)c2)c1` [Example 35], the IC50 in test [1] is 1000 to 10000 nM; in test [2], at most 100 nM; in test [3] it was at most 100 nM.

With `CC(=O)Nc1cc(-c2cc(-c3cc(NC(=O)c4ccnc(C(F)(F)F)c4)cnc3C)ccn2)ccn1` [Example 36], the IC50 in test [1] was 1000 to 10000 nM; in test [2], at most 100 nM; in test [3] it was at most 100 nM.

With `CC(=O)Nc1cc(-c2cc(-c3cc(NC(=O)c4cccc(C(F)(F)F)c4)cnc3C)ccn2)ccn1` [Example 37], the IC50 in test [1] was 1000 to 10000 nM; in test [2] it was at most 100 nM; in test [3], at most 100 nM.

On to `Cc1ccc(NC(=O)c2ccnc(C(F)(F)F)c2)cc1-c1ccnc(-c2ccnc(NC(=O)CC#N)c2)c1` [Example 39, N-(3-(2′-(2-cyanoacetamido)-[2,4′-bipyridin]-4-yl)-4-methylphenyl)-2-(trifluoromethyl)isonicotinamide], for which the IC50 was 1000 to 10000 nM in test [1], at most 100 nM in test [2] and at most 100 nM in test [3].

For the compound `CNC(=O)c1cc(-c2cc(-c3cc(NC(=O)c4ccnc(C)c4)ccc3C)ccn2)ccn1` [Example 40], the IC50 is 1000 to 10000 nM in test [1], at most 100 nM in test [2] and at most 100 nM in test [3].

Take `Cc1ccc(NC(=O)c2ccnc(C(F)(F)F)c2)cc1-c1ccnc(-c2ccnc(NC=O)c2)c1` [Example 46]: the IC50 in test [1] is 1000 to 10000 nM; in test [2], at most 100 nM; in test [3] it was at most 100 nM.

On to `CNC(=O)c1cc(-c2cncc(-c3cc(NC(=O)c4ccnc(C(F)(F)F)c4)ccc3C)n2)ccn1` [Example 47], for which the IC50 was 1000 to 10000 nM in test [1], at most 100 nM in test [2] and at most 100 nM in test [3].

Consider `Cc1cc(-c2cc(-c3cc(NC(=O)c4ccnc(C(C)(C)C#N)c4)ccc3C)ccn2)ccn1` [Example 49], for which the values for the IC50 in test [1], in test [2] and in test [3] were 1000 to 10000 nM, at most 100 nM and at most 100 nM, respectively.

Take `COCC(=O)Nc1cc(-c2cccc(-c3cc(NC(=O)c4ccnc(C(F)(F)F)c4)ccc3C)c2)ccn1` [Example 57]: the IC50 in test [1] is 1000 to 10000 nM; in test [2] it was at most 100 nM; in test [3], at most 100 nM.

`CC(=O)Nc1cc(-c2cc(-c3cc(NC(=O)c4ccnc(C)c4)ccc3C)ncn2)ccn1` [Example 59]: the IC50 is 1000 to 10000 nM in test [1], at most 100 nM in test [2] and at most 100 nM in test [3].

As to `CNC(=O)c1cc(-c2cc(-c3cc(NC(=O)c4ccnc(C)c4)ccc3C)ncn2)ccn1` [Example 60], the IC50 in test [1] is 1000 to 10000 nM; in test [2], at most 100 nM; in test [3] it was at most 100 nM.

Take `COCC(=O)Nc1cc(-c2cc(-c3cc(NC(=O)c4ccnc(C(C)(C)C#N)c4)ccc3C)ccn2)ccn1` [Example 61]: the IC50 in test [1] is 1000 to 10000 nM; in test [2], at most 100 nM; in test [3], at most 100 nM.

`Cc1ccc(NC(=O)c2ccnc(C(F)(F)F)c2)cc1-c1cccc(-c2ccnc(NC(=O)CC#N)c2)c1` [Example 62]: the IC50 is 100 to 500 nM in test [1], at most 100 nM in test [2] and at most 100 nM in test [3].
